# Measurements from patent publication US20260297060A1, “COMPOUNDS FOR THE DEGRADATION OF MUTANT BRAF” (C4 THERAPEUTICS, INC., priority 2023, published 2026).
# Test system: A375 human melanoma xenografts
# Assay: In vivo therapeutic efficacy in A375 human melanoma xenografts (tumor volume, T/C, TGI), Example 14
# Set-up: species or system human tumor in female BALB/c nude mice
# Description: Agents were tested in the A375 human melanoma xenografts. Compound 26 and Compound 141 were administered to BALB/c nude mice bearing A375 tumors from PG-DO and dosed via PO twice a day (BID) or third a day (TIP) or dosed P daily (QD) from PG-D. Dabrafenib was administered to BALB/c nude mice bearing A375 tumors from PG-D1 and dosed via P daily (QD). Compound 26 was dosed at 1.5 mg/kg (QD), 2 mg/kg (TID), 3 mg/kg (BID), 6 mg/kg (QD) and 10 mg/kg (BID) for 21 days. Compound 141 was dosed at 0.75 mg/kg (BID), 1 mg/kg (TID), 1.5 mg/kg (BID), 3 mg/kg (QD) and 5 mg/kg (BID) for 21 days. Dabrafenib was dosed at 100 mg/kg for 21 days. This study was non-GLP.
# One hundred and thirty-eight female BALB/c nude Mus Musculus mice procured from Shanghai Lingchang Biological Science and Technology Co., LTD between the ages of six to eight weeks and with body weight between eighteen and twenty-two grams were used for the study. A spare mouse was also procured.
# The A375 tumor cells were maintained in vitro in DMEM medium supplemented with 10% fetal bovine serum and 1% Penicillin-Streptomycin at 37° C. in an atmosphere of 5% CO2 in air. The tumor cells were routinely sub-cultured twice weekly. The cells growing in an exponential growth phase were harvested and counted for tumor inoculation.
# Each mouse was inoculated subcutaneously at the right flank with A375 cells (5×10^6) in 0.2 mL of PBS supplemented with Matrigel (PBS: Matrigel=1:1) for tumor development. Animals were grouped for efficacy study on day 15 after tumor inoculation when the average tumor volume reached 220 mm^3. The test articles administration and the animal numbers in each group are shown in the above experimental Table 75.
# At the time of routine monitoring, the animals were checked daily for any effects of tumor growth and treatments on normal behavior such as mobility, food and water consumption (by looking only), body weight gain/loss (body weights were measured twice weekly), eye/hair matting and any other abnormal effect as stated in the protocol. Death and observed clinical signs were recorded on the basis of the numbers of animals within each subset.
# Prior to the onset of drug treatment, mice were measured for tumor size in two dimensions using a caliper, and the tumor volume (mm^3) was calculated using formula V=0.5 a×b^2 where a and b are the long and short diameters of the tumor in mm, respectively. Mice were randomized into different treatment groups based on the tumor volume.
# The major endpoint was to see if the tumor growth could be delayed or mice could be cured. The tumor size was then used for calculations of T/C value. The T/C value (in percent) is an indication of antitumor effectiveness; T and C are the mean volumes of the treated and control groups, respectively on specified day.
# TGI was calculated for each group using the formula: TGI (%)=[1−(Ti−T0)/(Ci−C0)]×100; Ti is the average tumor volume of a treatment group on a given day, T0 is the average tumor volume of the treatment group on the day of treatment start, Ci is the average tumor volume of the vehicle control group on the same day with Ti, and C0 is the average tumor volume of the vehicle group on the day of treatment start.
# A one-way ANOVA followed by Dunnett's multiple comparison test was performed to compare tumor volume among vehicle group (Group 1) and treatment groups (Group 2-Group 12). All data were analyzed using GraphPad Prism, ns indicates p>0.05, * indicates p<0.05, ** indicates p<0.01, *** indicates p<0.001 and **** indicates p<0.0001.
# Tumor growth inhibition of Compound 26, Compound 141 and dabrafenib in the treatment of female BALB/c nude mice bearing A375 xenografts was calculated based on tumor volume measured on […]. TGI and T/C were calculated respectively and the data are detailed in Table 82.
# [1] = 2 mg/kg p.o. TID × 21 days, PG-D21
compound,measurement,setting,value
"CCN(C)S(=O)(=O)Nc1ccc(F)c(Oc2ccc3ncn([C@H]4COC5(CCN(C6CC7(C6)CN(c6cc8c(cc6F)c(N6CCC(=O)NC6=O)nn8C)C7)CC5)C4)c(=O)c3c2)c1C#N [Compound 26, (3R)-3-[6-[2-cyano-3-[[ethyl(methyl)sulfamoyl]amino]-6-fluoro-phenoxy]-4-oxo-quinazolin-3-yl]-8-[2-[3-(2,4-dioxohexahydropyrimidin-1-yl)-5-fluoro-1-methyl-indazol-6-yl]-2-azaspiro[3.3]heptan-6-yl]-1-oxa-8-azaspiro[4.5]decane]",Tumor volume,"1.5 mg/kg p.o. BID x 21 days, day 0, mean ± SEM",220 ± 16 mm^3
same,Tumor volume,"1.5 mg/kg p.o. BID x 21 days, day 4, mean ± SEM",249 ± 21 mm^3
same,Tumor volume,"1.5 mg/kg p.o. BID x 21 days, day 7, mean ± SEM",227 ± 23 mm^3
same,Tumor volume,"1.5 mg/kg p.o. BID x 21 days, day 11, mean ± SEM",210 ± 26 mm^3
same,Tumor volume,"1.5 mg/kg p.o. BID x 21 days, day 14, mean ± SEM",204 ± 26 mm^3
same,Tumor volume,"1.5 mg/kg p.o. BID x 21 days, day 18, mean ± SEM",271 ± 44 mm^3
same,Tumor volume,"1.5 mg/kg p.o. BID x 21 days, day 21, mean ± SEM",400 ± 70 mm^3
same,Tumor volume,"1.5 mg/kg p.o. BID x 21 days, day 25 (dosing-free regrowth), mean ± SEM",730 ± 94 mm^3
same,Tumor volume,"1.5 mg/kg p.o. BID x 21 days, day 28 (dosing-free regrowth), mean ± SEM",1006 ± 99 mm^3
same,Tumor volume,"1.5 mg/kg p.o. BID x 21 days, day 32 (dosing-free regrowth), mean ± SEM",1224 ± 99 mm^3
same,Tumor volume,"1.5 mg/kg p.o. BID x 21 days, day 35 (dosing-free regrowth), mean ± SEM",1497 ± 94 mm^3
same,Tumor volume,"1.5 mg/kg p.o. BID x 21 days, day 39 (dosing-free regrowth), mean ± SEM",1978 ± 148 mm^3
same,Tumor volume,"1.5 mg/kg p.o. BID x 21 days, day 42 (dosing-free regrowth), mean ± SEM",2420 ± 205 mm^3
same,Tumor volume,"1.5 mg/kg p.o. BID x 21 days, day 46 (dosing-free regrowth), mean ± SEM",2759 ± 274 mm^3
same,Tumor volume,"1.5 mg/kg p.o. BID x 21 days, day 49 (dosing-free regrowth), mean ± SEM",2514 ± 268 mm^3
same,Tumor volume,"1.5 mg/kg p.o. BID x 21 days, day 53 (dosing-free regrowth), mean ± SEM",3087 ± 444 mm^3
same,Tumor volume,"1.5 mg/kg p.o. BID x 21 days, day 56 (dosing-free regrowth)",3153 mm^3
same,Tumor volume,"2 mg/kg p.o. TID x 21 days, day 0, mean ± SEM",220 ± 15 mm^3
same,Tumor volume,"2 mg/kg p.o. TID x 21 days, day 4, mean ± SEM",172 ± 13 mm^3
same,Tumor volume,"2 mg/kg p.o. TID x 21 days, day 7, mean ± SEM",99 ± 9 mm^3
same,Tumor volume,"2 mg/kg p.o. TID x 21 days, day 11, mean ± SEM",68 ± 8 mm^3
same,Tumor volume,"2 mg/kg p.o. TID x 21 days, day 14, mean ± SEM",51 ± 7 mm^3
same,Tumor volume,"2 mg/kg p.o. TID x 21 days, day 18, mean ± SEM",36 ± 4 mm^3
same,Tumor volume,"2 mg/kg p.o. TID x 21 days, day 21, mean ± SEM",41 ± 5 mm^3
same,Tumor volume,"2 mg/kg p.o. TID x 21 days, day 25 (dosing-free regrowth), mean ± SEM",85 ± 16 mm^3
same,Tumor volume,"2 mg/kg p.o. TID x 21 days, day 28 (dosing-free regrowth), mean ± SEM",156 ± 32 mm^3
same,Tumor volume,"2 mg/kg p.o. TID x 21 days, day 32 (dosing-free regrowth), mean ± SEM",292 ± 57 mm^3
same,Tumor volume,"2 mg/kg p.o. TID x 21 days, day 35 (dosing-free regrowth), mean ± SEM",441 ± 86 mm^3
same,Tumor volume,"2 mg/kg p.o. TID x 21 days, day 39 (dosing-free regrowth), mean ± SEM",754 ± 156 mm^3
same,Tumor volume,"2 mg/kg p.o. TID x 21 days, day 42 (dosing-free regrowth), mean ± SEM",980 ± 198 mm^3
same,Tumor volume,"2 mg/kg p.o. TID x 21 days, day 46 (dosing-free regrowth), mean ± SEM",1320 ± 265 mm^3
same,Tumor volume,"2 mg/kg p.o. TID x 21 days, day 49 (dosing-free regrowth), mean ± SEM",1646 ± 332 mm^3
same,Tumor volume,"2 mg/kg p.o. TID x 21 days, day 53 (dosing-free regrowth), mean ± SEM",2216 ± 435 mm^3
same,Tumor volume,"2 mg/kg p.o. TID x 21 days, day 56 (dosing-free regrowth), mean ± SEM",2482 ± 579 mm^3
same,Tumor Size on PG-D21 (Mean ± SEM),2 mg/kg p.o. TID × 21 days,41 ± 5 mm^3
same,T/C,[1],2.2%
same,TGI,[1],110.8%
same,Tumor volume,"3 mg/kg p.o. BID x 21 days, day 0, mean ± SEM",220 ± 15 mm^3
same,Tumor volume,"3 mg/kg p.o. BID x 21 days, day 4, mean ± SEM",219 ± 16 mm^3
same,Tumor volume,"3 mg/kg p.o. BID x 21 days, day 7, mean ± SEM",136 ± 11 mm^3
same,Tumor volume,"3 mg/kg p.o. BID x 21 days, day 11, mean ± SEM",83 ± 6 mm^3
same,Tumor volume,"3 mg/kg p.o. BID x 21 days, day 14, mean ± SEM",52 ± 5 mm^3
same,Tumor volume,"3 mg/kg p.o. BID x 21 days, day 18, mean ± SEM",45 ± 7 mm^3
same,Tumor volume,"3 mg/kg p.o. BID x 21 days, day 21, mean ± SEM",48 ± 9 mm^3
same,Tumor volume,"3 mg/kg p.o. BID x 21 days, day 25 (dosing-free regrowth), mean ± SEM",129 ± 75 mm^3
same,Tumor volume,"3 mg/kg p.o. BID x 21 days, day 28 (dosing-free regrowth), mean ± SEM",258 ± 165 mm^3
same,Tumor volume,"3 mg/kg p.o. BID x 21 days, day 32 (dosing-free regrowth), mean ± SEM",423 ± 234 mm^3
same,Tumor volume,"3 mg/kg p.o. BID x 21 days, day 35 (dosing-free regrowth), mean ± SEM",578 ± 289 mm^3
same,Tumor volume,"3 mg/kg p.o. BID x 21 days, day 39 (dosing-free regrowth), mean ± SEM",878 ± 311 mm^3
same,Tumor volume,"3 mg/kg p.o. BID x 21 days, day 42 (dosing-free regrowth), mean ± SEM",1129 ± 390 mm^3
